The target in data set [1] is T1, PaIspD (Pseudomonas aeruginosa, UniProt P57707).
T1 construct: His6 (N, cleaved yes); made in house; host or cells: Escherichia coli BL21 (DE3), pET28
T1 sequence (P57707 1-234): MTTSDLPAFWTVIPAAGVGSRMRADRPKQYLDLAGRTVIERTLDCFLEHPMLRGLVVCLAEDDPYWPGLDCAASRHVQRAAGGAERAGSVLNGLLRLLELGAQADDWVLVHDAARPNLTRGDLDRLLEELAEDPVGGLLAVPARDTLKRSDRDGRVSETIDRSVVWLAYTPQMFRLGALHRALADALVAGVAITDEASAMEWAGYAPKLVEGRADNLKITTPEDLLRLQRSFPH
As to the kind of experiment: Microscale thermophoresis (MST) with dyed PaIspD. The class given is binding. On the procedure:
The microscale thermophoresis (MST) (Serial no. 201709-BR-N024, Monolith NT.115 Micro Scale Thermophoresis, NanoTemper Technologies GmbH.) was performed using dyed PaIspD, labeled according to the standard protocol from the manufacturer NanoTemper Technologies GmbH Protein Labeling Kit Red-NHS, 2nd Generation. A 2 mM ligand solution containing 10% DMSO was prepared (Solution I). A 200 µl solution of 10% DMSO containing buffer solution was prepared (Solution II). The buffer used was HEPES (50 mM), MgCl2 (5 mM) and Tween (0.05%) at pH 7.6 for all compounds. To PCR tubes 2-16, 10 µl of solution II was added. To tube 1, 20 µl of solution I was added. 10 µl from tube 1 was add to tube 2 and mixed. This was continued until tube 16. To each tube, 10 µL of the protein dye mixture was added and mixed. The mixture was allowed to incubate at room temperature for 5 minutes. Non-hydrophobic capillary tubes were used for measurement. Each sample was measured and analyzed in MO Control version 1.6.
A general note: In MST a laser heats a spot of the sample, and binding alters the fluorescence response.

The target of data set [2] is T1, PaIspD. Put plainly: Fluorescence quenching (PaIspD). The format is binding. Here is the method: Fluorescence quenching (PaIspD)
Quenching is expressed as (I0 – I) / I0 with I0 the intensity (at 332 nm) of fluorescence in absence of compound and I the intensity of fluorescence upon addition of compound. Inset, fluorescence emission spectra in the presence of increasing concentrations of compound. The concentration of PaIspD was kept at 2 µM during the assay, the compounds were tested in concentration ranges given below. The excitation wavelength was set at 286 nm, emission spectra were recorded between 300 nm and 380 nm. The data were fitted using Qtiplot software (qtiplot.com). A least square fit to a simple bimolecular equilibrium was used to estimate the Kd values. Each measurement was reproduced two times. The measurements were carried out in the following buffer: 50 mM Tris-Cl pH = 8, 50 mM NaCl, 1mM MgCl2.
Table S1. Concentration ranges used to determine Kd during the Fluorescence quenching assay.

Data set [3] deals with T1, PaIspD. As to the kind of experiment: Determination of enzyme kinetics (Michaelis constants of substrates, LC-MS). The class given is biochemical. The conditions noted are these: substrate of PaIspD; 50 nM PaIspD, 37 °C, 40 minutes. On the procedure: (§1) Determination of enzyme kinetics
(§2) Table S1. Michaelis constants for MEP and CTP of PaIspD.
(§3) Substrate Km (mM) Vmax (AU/min-1)
(§4) Determination of enzyme kinetics. The assay was conducted as published before. To determine the Km values for CTP and MEP with PaIspD, substrate concentrations (0.016–2 mM) were prepared in a 96-well plate. Each well contained 100 μL of reaction mix with Buffer A (100 mM Tris-HCl pH 7.6, 1 mM DTT, 1 mM MgCl2) and 50 nM PaIspD. Serial dilutions of CTP or MEP were performed, and reactions were initiated by adding Buffer B (100 mM Tris-HCl pH 7.6, 1 mM DTT, 1 mM MEP or CTP). Plates were incubated at 37 °C for 40 minutes, denatured at 95 °C for 5 minutes, and centrifuged at 4000 rpm at 4 °C. Supernatants (10 μL) were mixed with an 190 μL ice-cold 3:1:1 ACN, isopropanol, water mixture containing 100 nM 4-methyl-1-oxo-1-(p-tolylamino)pentane-2-sulfonic acid, adenylyl-imidodiphosphate and adenosine-5′- [(α,β)-methyleno]triphosphate as internal standard. After centrifugation at 4000 rpm at 4 °C for 5 min, a 50 μL aliquot was transferred to an LC-MS plate for analysis. Peak areas were used to calculate Michaelis–Menten kinetics using GraphPad Prism v9. Measurements were done in duplicates and repeated in two independent experiments.
Figure S1: Kinetic parameters of PaIspD substrates (MEP, left and CTP, right). Each data point reflects the mean ± SD obtained from two-independent […]

Data set [4] deals with T1, PaIspD. As to the kind of experiment: 1H-STD NMR and competition STD NMR with CTP. The format is binding. From the text: To further validate the occurrence of interactions taking place between the fragment and PaIspD, we referred to ^1H‐STD NMR spectroscopy, a commonly used technique for this purpose.[10, 11] We conducted this experiment in a HEPES buffer in D2O with a 100‐fold excess of 2 compared to PaIspD. In the corresponding difference spectrum, we identified all proton signals previously observed in the ^1H NMR spectrum of 2 (see Figure S2 and S3 in the Supporting Information). […] We further noted the magnitude of amplification of the signals as the efficiency of saturation transfer scales with distance, enabling us to gain an idea about the proximity of each proton to the protein surface.[12] Among all protons, those in position iii (Figure 4) clearly received a surplus in saturation transfer relative to the other ones, whereas the protons positioned on the pyridyl ring (i, Figure 4) and the protons in position ii (Figure 4) received both less amplification with the latter receiving the least amount (Figure 4). […]
The 1H-STD-NMR experiment was recorded at 25 °C with 512 scans on a Bruker Avance Neo 500 MHz spectrometer with prodigy cryoprobe system. […]

Substrate in data set [5]: C[C@](O)(CO)[C@H](O)COP(=O)(O)O
As to the kind of experiment: Determination of enzyme kinetics (Michaelis constants of substrates, LC-MS). The format is biochemical, Pseudomonas aeruginosa. The following applies: other: substrate of PaIspD, 50 nM PaIspD, 37 °C, 40 minutes, pH 7.6. Here is the method: as §1, §2, §3, §4
Figure S1: Kinetic parameters of PaIspD substrates (MEP, left and CTP, right). […]

Setting [6] is: -log KD, supplement sheet, CORRECTED VALUES.
[7] abbreviates: -log KD, supplement sheet, PUBLISHED VALUES.
The mark [8] stands for this setting: MST Kd, n=2, mean±SD, HEPES 50 mM, MgCl2 5 mM, Tween 0.05%, pH 7.6.
[9] abbreviates: kd (M), supplement sheet, CORRECTED VALUES.
Setting [10] is: kd (µM), supplement sheet, CORRECTED VALUES, MST Kd.
The mark [11] stands for this setting: supplement sheet, CORRECTED VALUES.
The mark [12] stands for this setting: supplement sheet, PUBLISHED VALUES.

Consider `CN1CCC(N2Cc3cccnc3C2=O)CC1` [Compound 3], for which the Kd in data set [1] (setting [6]) was 0.000186 M; in data set [1] (setting [7]), 0.000186 M; in data set [1] (setting [8]), 0.000186 ± 7e-06 M; in data set [1] (setting [9]), 0.000186 M; in data set [1] (setting [10]), 0.000186 M; in data set [2], 879 ± 64 µM. The same molecule returned an LE in data set [1] (setting [11]) of 0.3006. In data set [1] (setting [12]), this molecule yielded an LLE of -0.7773.
Consider `O=C1c2ncccc2CN1CCc1c[nH]c2ccccc12` [Compound 6], for which the Kd is 0.000208 M in data set [1] (setting [6]); 0.000208 M in data set [1] (setting [7]); 0.000208 ± 7e-06 M in data set [1] (setting [8]); 0.000208 M in data set [1] (setting [9]); 0.000208 M in data set [1] (setting [10]); 332 ± 22 µM in data set [2]. Moreover, in data set [1] (setting [11]), the LE is listed as 0.2402. Also, the LLE in data set [1] (setting [12]) is -0.7939.
For the molecule `Nc1ccn([C@@H]2O[C@H](COP(=O)(O)OP(=O)(O)OP(=O)(O)O)[C@@H](O)[C@H]2O)c(=O)n1` [CTP], in data set [3], the Km was determined as 200 ± 100 µM and the Vmax was determined as 0.30 ± 0.01 AU/min-1.
With `CN(C(=O)c1ccncc1)C1c2cccnc2C(=O)N1C` (centres unmarked) [Compound 10], the Kd in data set [1] (setting [6]) is 0.000209 M; in data set [1] (setting [7]), 0.000209 M; in data set [1] (setting [8]), 0.000209 ± 4e-06 M; in data set [1] (setting [9]) it was 0.000209 M; in data set [1] (setting [10]) it was 0.000209 M; in data set [2] it was 310 ± 28 µM. In data set [1] (setting [11]), this molecule gave an LE of 0.2401. Also, the LLE in data set [1] (setting [12]) is on record as -0.6357.
Regarding `O=C1c2ncccc2CN1CCN1CCOCC1` [Compound 5], the Kd is 0.000491 M in data set [1] (setting [6]); 0.000491 M in data set [1] (setting [7]); 0.000491 ± 2e-06 M in data set [1] (setting [8]); 0.000491 M in data set [1] (setting [9]); 0.000491 M in data set [1] (setting [10]). In data set [1] (setting [11]), this molecule yielded an LE of 0.2518. For the same molecule, the LLE in data set [1] (setting [12]) is reported as -0.7374.
`C[C@](O)(CO)[C@H](O)COP(=O)(O)O` [MEP, 2‐C‐methylerythritol‐D‐erythritol‐4‐phosphate]: in data set [3], the Vmax turned out to be 0.30 ± 0.0 AU/min-1.
Take `CCC(=O)N(C)C1c2cccnc2C(=O)N1C` (centres unmarked) [Compound 8]: the Kd in data set [2] was found to be 248 ± 15 µM.
In the case of `CN1Cc2cccnc2C1=O` [Compound 2], the Kd in data set [1] (setting [6]) was 0.000939 M; in data set [1] (setting [7]) it was 0.000939 M; in data set [1] (setting [9]), 0.000939 M; in data set [1] (setting [10]) it was 0.000939 M; in data set [2], 977 ± 59 µM. This molecule also came in with an LE in data set [1] (setting [11]) of 0.377. The LLE in data set [1] (setting [12]) was -1.358. In addition, in data set [4] (1 mM 2, 10 mM CTP, 10 µM PaIspD), the “Competition STD NMR with CTP” value is reported as “STD signals of 2 disappeared”. Also, in data set [4] (HEPES buffer in D2O, 100-fold excess of 2 compared to PaIspD), the “1H-STD NMR interaction with PaIspD” value is “came into close proximity of the protein”.
Regarding `CN1C(=O)c2ncccc2C1N(C)C(=O)N1CCOCC1` (centres unmarked) [Compound 12], the Kd is 0.000239 M in data set [1] (setting [6]); 0.000239 M in data set [1] (setting [7]); 0.000239 ± 6e-06 M in data set [1] (setting [8]); 0.000239 M in data set [1] (setting [9]); 0.000239 M in data set [1] (setting [10]); 371 ± 42 µM in data set [2]. This molecule registered an LE in data set [1] (setting [11]) of 0.2363. In data set [1] (setting [12]), this molecule gave an LLE of -0.5431.
As to `O=C1c2ncccc2CN1Cc1ccccc1` [Compound 4], the Kd was 0.000133 M in data set [1] (setting [6]); 0.000133 M in data set [1] (setting [7]); 0.000133 ± 1.2e-05 M in data set [1] (setting [8]); 0.000133 M in data set [1] (setting [9]); 0.000133 M in data set [1] (setting [10]); 391 ± 35 µM in data set [2]. Also, the LE in data set [1] (setting [11]) turned out to be 0.3124. The LLE in data set [1] (setting [12]) is on record as -0.9699.
For the molecule `COC(=O)N(C)C1c2cccnc2C(=O)N1C` (centres unmarked) [Compound 7], the Kd in data set [1] (setting [6]) is 0.000454 M; in data set [1] (setting [7]), 0.000454 M; in data set [1] (setting [8]), 0.000454 ± 2.7e-05 M; in data set [1] (setting [9]), 0.000454 M; in data set [1] (setting [10]) it was 0.000454 M. In data set [1] (setting [11]), this molecule gave an LE of 0.2694. Also, in data set [1] (setting [12]), the LLE is on record as -0.728.
As for `CCC(CC)C(=O)N(C)C1c2cccnc2C(=O)N1C` (centres unmarked) [Compound 9], the dissociation constant (Kd) in data set [1] (setting [6]) is 0.000536 M; in data set [1] (setting [7]) it was 0.000536 M; in data set [1] (setting [8]) it was 0.000536 ± 4.7e-05 M; in data set [1] (setting [9]) it was 0.000536 M; in data set [1] (setting [10]), 0.000536 M. Moreover, the LE in data set [1] (setting [11]) turned out to be 0.2241. Besides, in data set [1] (setting [12]), the LLE was -0.9347.
Take `CN(C(=O)c1ccon1)C1c2cccnc2C(=O)N1C` (centres unmarked) [Compound 11]: the Kd was 0.000502 M in data set [1] (setting [6]); 0.000502 M in data set [1] (setting [7]); 0.000502 ± 5.6e-05 M in data set [1] (setting [8]); 0.000502 M in data set [1] (setting [9]); 0.000502 M in data set [1] (setting [10]); 301 ± 16 µM in data set [2]. For the same molecule, in data set [1] (setting [11]), the LE was 0.226. Besides, the LLE in data set [1] (setting [12]) was -0.6167.

B1: PaIspD (Pseudomonas aeruginosa PAO1) (protein)
chain: T1 sequence (P57707 1-234)
notes: His6 (N, cleaved yes); made in house; host or cells: Escherichia coli BL21 (DE3), pET28
B1: in data set [5], the Michaelis-Menten constant (Km) came to 210 ± 100 µM.

As usually defined, the Kd is the equilibrium constant for the complex coming apart. As usually defined, the Km is the substrate concentration at which the rate is half of its maximum.

Source of the values: paper PMC11796317, “Fragment Discovery by X‐Ray Crystallographic Screening Targeting the CTP Binding Site of Pseudomonas Aeruginosa IspD” (Angewandte Chemie (International Ed. in English), 2025).
